The record followed here is patent US20160296499A1, “Spiroindoline Antiparasitic Derivatives” (ZOETIS SERVICES LLC, priority 2013, published 2016).

The term Ki denotes the equilibrium dissociation constant of an inhibitor or competing ligand from its target.

Structures are written as SMILES. Read-outs that look alike come from different tables or passages of the source.

Assay [1] relates to Dirofilaria immitis microfilariae. Kind of assay: Dirofilaria immitis, Microfilariae (DiMF) In Vitro Assay.
Assay [2] relates to Haemonchus contortus L3. In words: Haemonchus contortus, Larvae Stage 3 (HcL3) In Vitro Assay. The following applies: Haemonchus contortus.
The target of assay [3] is T1, bovine vesicular acetylcholine transporter (VAChT) (Bos taurus, UniProt E1BK36).
T1 sequence (E1BK36 1-524): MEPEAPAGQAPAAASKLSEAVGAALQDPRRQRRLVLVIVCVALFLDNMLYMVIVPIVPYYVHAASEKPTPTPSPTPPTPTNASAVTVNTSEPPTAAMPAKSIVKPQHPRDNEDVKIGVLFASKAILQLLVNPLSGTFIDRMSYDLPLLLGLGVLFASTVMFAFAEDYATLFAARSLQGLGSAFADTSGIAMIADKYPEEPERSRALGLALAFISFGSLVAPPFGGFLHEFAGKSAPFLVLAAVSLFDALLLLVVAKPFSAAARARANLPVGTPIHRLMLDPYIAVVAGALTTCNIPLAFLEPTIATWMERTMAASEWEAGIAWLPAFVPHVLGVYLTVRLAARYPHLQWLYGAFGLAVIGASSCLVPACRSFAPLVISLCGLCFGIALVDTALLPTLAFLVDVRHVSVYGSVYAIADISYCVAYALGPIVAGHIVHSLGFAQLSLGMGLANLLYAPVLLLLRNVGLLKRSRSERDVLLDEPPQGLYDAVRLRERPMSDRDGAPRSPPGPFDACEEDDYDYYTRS
In words: Radioligand Binding Assay. The following applies: Bovine binding Ki, CHO-K1 membranes with recombinant bovine VAChT, [3H]Compound X6 0.3 nM.
Experimental: To measure binding affinity, CHO-K1 cells recombinantly expressing the bovine VAChT was generated as a stable cell line and subsequently used to produce membrane preparations.
Radioligand binding assays were conducted in disposable polypropylene 96-well plates. VAChT competition assays were initiated by the addition of bovine recombinant membrane homogenate (50 μg/well) in assay buffer (50 mM Tris-HCl, 120 mM NaCl, 5 mM KCl, 1 mM MgCl, and 2 mM CaCl, pH 7.4) containing [^3H]Compound X6 (0.3 nM) with or without competing ligand. The assay was allowed to equilibrate for 120 minutes at room temperature, before being filtered onto GF/C unifilter plates pre-coated in 0.3% polyethylenimine (Perkin Elmer Life and Analytical Sciences, Boston, Mass.) with a Filtermate 96 harvester (PerkinElmer Life and Analytical Sciences). Filters were washed in ice-cold 50 mM Tris-HCl, pH 7.4 buffer and then counted for radioactivity in a TopCount microplate scintillation counter after addition of 50 μL Microscint 20 (PerkinElmer). Non-specific binding was measured in the presence of 10 μM Compound X6. Apparent dissociation constants (Ki values) from the competition experiments were calculated using an iterative nonlinear regression curve-fitting program (GraphPAD Prism 6.0 Software, San Diego, Calif.) and are reported in Table 2.

[4] abbreviates: Dirofilaria immitis, 72 h, read-out: Di MF, MEC, decrease in microfilariae motility by visual assessment, curve starting at 100 μM.
Where [5] appears, read: 96 h, read-out: HcL3 MEC, Minimal Effective Concentration whereby worm motility is inhibited by approximately 70%, 37° C., tested 0.001-100 μM.
Setting [6] is: Dirofilaria immitis, 72 hours, read-out: Di MF.
The mark [7] stands for this setting: 96 hours, 37° C., read-out: HcL3 MEC.

Consider `CN(C)c1ccc2c(c1)C1(CCN(C/C=C/c3ccc(Cl)c(Cl)c3)CC1)CN2C(=O)NCc1ccnc(Cl)c1` [Example 137, (E)-N-((2-chloropyridin-4-yl)methyl)-1′-(3-(3,4-dichlorophenyl)allyl)-5-(dimethylamino)spiro[indoline-3,4′-piperidine]-1-carboxamide], for which the minimal effective concentration in assay [1] (setting [4]) turned out to be 10 µM; in assay [2] (setting [5]), 3.3 µM. In addition, in assay [3], the Ki came out at 516 nM.

For `O=C(NCc1ccnc(Cl)c1)N1CC2(CCN(C/C=C/c3ccc(C(F)(F)F)cc3)CC2)c2ccc(C(F)(F)F)cc21` [Example 138, (E)-N-((2-chloropyridin-4-yl)methyl)-6-(trifluoromethyl)-1′-(3-(4-(trifluoromethyl)phenyl)allyl)spiro[indoline-3,4′-piperidine]-1-carboxamide], the minimal effective concentration in assay [1] (setting [4]) is 10 µM; in assay [2] (setting [5]), 3.3 µM. The Ki in assay [3] was determined as 57.2 nM.

As for `O=C(NCc1ccnc(Cl)c1)N1CC2(CCN(Cc3ccc4cc(F)ccc4c3)CC2)c2cc(Cl)ccc21` [Example 139, 5-chloro-N-((2-chloropyridin-4-yl)methyl)-1′-((6-fluoronaphthalen-2-yl)methyl)spiro[indoline-3,4′-piperidine]-1-carboxamide], the minimal effective concentration turned out to be 33 µM in assay [1] (setting [4]) and 3.3 µM in assay [2] (setting [5]). Also, the Ki in assay [3] was found to be 20.1 nM.

Consider `O=C(NCc1ccnc(Cl)c1)N1CC2(CCN(C/C=C/c3ccc(Cl)cc3)CC2)c2c1ccc(F)c2Cl` [Example 140, (E)-4-chloro-1′-(3-(4-chlorophenyl)allyl)-N-((2-chloropyridin-4-yl)methyl)-5-fluorospiro[indoline-3,4′-piperidine]-1-carboxamide], for which the minimal effective concentration amounted to 5.7 µM in assay [1] (setting [6]) and 3.3 µM in assay [2] (setting [7]). Moreover, the Ki in assay [3] came to 95.2 nM.

Regarding `O=C(NCc1ccnc(Cl)c1)N1CC2(CCN(C/C=C/c3ccc(F)cc3)CC2)c2cc(Cl)c(Cl)cc21` [Example 141, (E)-5,6-dichloro-N-((2-chloropyridin-4-yl)methyl)-1′-(3-(4-fluorophenyl)allyl)spiro[indoline-3,4′-piperidine]-1-carboxamide], the minimal effective concentration amounted to 4.4 µM in assay [1] (setting [6]) and 3.3 µM in assay [2] (setting [7]). The Ki in assay [3] stood at 164 nM.

`O=C(NCc1ccnc(Cl)c1)N1CC2(CCN(C/C=C/c3ccc(Cl)cc3)CC2)c2cc(Cl)c(Cl)cc21` [Example 142, (E)-5,6-dichloro-1′-(3-(4-chlorophenyl)allyl)-N-((2-chloropyridin-4-yl)methyl)spiro[indoline-3,4′-piperidine]-1-carboxamide]: the figures for the minimal effective concentration in assay [1] (setting [6]) and in assay [2] (setting [7]) were 7.6 µM and 3.3 µM, respectively. The Ki in assay [3] amounted to 107 nM.

Turning to `O=C(NCc1ccnc(Cl)c1)N1CC2(CCN(C/C=C/c3ccc(F)cc3)CC2)c2c1ccc(Cl)c2Cl` [Example 143, (E)-4,5-dichloro-N-((2-chloropyridin-4-yl)methyl)-1′-(3-(4-fluorophenyl)allyl)spiro[indoline-3,4′-piperidine]-1-carboxamide], the minimal effective concentration in assay [1] (setting [6]) stood at 5.7 µM; in assay [2] (setting [7]) it was 3.3 µM. In addition, in assay [3], the Ki came out at 114 nM.

In the case of `O=C(NCc1ccnc(Cl)c1)N1CC2(CCN(C/C=C/c3ccc(Cl)cc3)CC2)c2c1ccc(Cl)c2Cl` [Example 144, (E)-4,5-dichloro-1′-(3-(4-chlorophenyl)allyl)-N-((2-chloropyridin-4-yl)methyl)spiro[indoline-3,4′-piperidine]-1-carboxamide], the results for the minimal effective concentration in assay [1] (setting [6]) and in assay [2] (setting [7]) were 10 µM and 3.3 µM, respectively. Moreover, the inhibition constant (Ki) in assay [3] was 26.2 nM.

Regarding `O=C(NCc1ccnc(Cl)c1)N1CC2(CCN(C/C=C/c3ccc(C(F)(F)F)cc3)CC2)c2cc(F)c(Cl)cc21` [Example 145, (E)-6-chloro-N-((2-chloropyridin-4-yl)methyl)-5-fluoro-1′-(3-(4-(trifluoromethyl)phenyl)allyl)spiro[indoline-3,4′-piperidine]-1-carboxamide], the minimal effective concentration stood at 5.7 µM in assay [1] (setting [4]) and 3.3 µM in assay [2] (setting [5]). The inhibition constant Ki in assay [3] was determined as 47.4 nM.

As for `O=C(NCc1ccnc(Cl)c1)N1CC2(CCN(C/C=C/c3ccc(Cl)c(Cl)c3)CC2)c2c1ccc(F)c2Cl` [Example 146, (E)-4-chloro-N-((2-chloropyridin-4-yl)methyl)-1′-(3-(3,4-dichlorophenyl)allyl)-5-fluorospiro[indoline-3,4′-piperidine]-1-carboxamide], the figures for the minimal effective concentration in assay [1] (setting [4]) and in assay [2] (setting [5]) were 5.7 µM and 3.3 µM, respectively. In addition, in assay [3], the inhibition constant (Ki) is 21.7 nM.

As to `O=C(NCc1ccnc(Cl)c1)N1CC2(CCN(C/C=C/c3ccc(Cl)cc3)CC2)c2cc(OC(F)(F)F)ccc21` [Example 147, (E)-1′-(3-(4-chlorophenyl)allyl)-N-((2-chloropyridin-4-yl)methyl)-5-(trifluoromethoxy)spiro[indoline-3,4′-piperidine]-1-carboxamide], the minimal effective concentration in assay [1] (MEC, decrease in microfilariae motility by visual assessment, 72 hours, curve starting at 100 μM, read-out: Di MF) came to 4.8 µM; in assay [2] (setting [5]), 3.9 µM. For the same compound, the Ki in assay [3] amounted to 322 nM.

For `O=C(NCc1ccnc(F)c1)N1CC2(CCN(C/C=C/c3ccc(Cl)cc3)CC2)c2c(OC(F)(F)F)ccc(Cl)c21` [Example 148, (E)-7-chloro-1′-(3-(4-chlorophenyl)allyl)-N-((2-fluoropyridin-4-yl)methyl)-4-(trifluoromethoxy)spiro[indoline-3,4′-piperidine]-1-carboxamide], the minimal effective concentration in assay [1] (setting [4]) was 3.3 µM; in assay [2] (setting [5]) it was 100 µM. The inhibition constant Ki in assay [3] came to 2480 nM.

As to `O=C(NCc1ccnc(Cl)c1)N1CC2(CCN(C/C=C/c3ccc(Cl)cc3)CC2)c2c1cccc2C(F)(F)F` [Example 149, (E)-1′-(3-(4-chlorophenyl)allyl)-N-((2-chloropyridin-4-yl)methyl)-4-(trifluoromethyl)spiro[indoline-3,4′-piperidine]-1-carboxamide], the minimal effective concentration was found to be 8.1 µM in assay [1] (setting [4]) and 5.1 µM in assay [2] (setting [5]). The inhibition constant (Ki) in assay [3] came to 396 nM.

For the compound `O=C(NCc1ccnc(Cl)c1)N1CC2(CCN(C/C=C/c3ccc(Cl)cc3)CC2)c2cc(OC(F)(F)F)c(Cl)cc21` [Example 150, (E)-6-chloro-1′-(3-(4-chlorophenyl)allyl)-N-((2-chloropyridin-4-yl)methyl)-5-(trifluoromethoxy)spiro[indoline-3,4′-piperidine]-1-carboxamide], the figures for the minimal effective concentration in assay [1] (setting [4]) and in assay [2] (setting [5]) were 18.2 µM and 5.7 µM, respectively. Moreover, in assay [3], the inhibitory constant (Ki) is 297 nM.

Regarding `O=C(NCc1ccnc(Cl)c1)N1CC2(CCN(C/C=C/c3ccc(C(F)(F)F)cn3)CC2)c2cc(C(F)(F)F)ccc21` [Example 151, (E)-N-((2-chloropyridin-4-yl)methyl)-5-(trifluoromethyl)-1′-(3-(5-(trifluoromethyl)pyridin-2-yl)allyl)spiro[indoline-3,4′-piperidine]-1-carboxamide], the minimal effective concentration was 4.3 µM in assay [1] (setting [4]) and 5.7 µM in assay [2] (setting [5]). Moreover, the inhibition constant (Ki) in assay [3] was found to be 518 nM.
